By pEC50 is commonly meant the EC50 on a negative log10 scale, so that one unit is a factor of ten.

The source of these data is patent US8796283B2, “Indole and azaindole modulators of the alpha 7 nachr” (Proximagen Limited, priority 2009, dated 2014).

Where a name gives a salt, the structure may show the parent alone.

In the first test the target is T1, human α7 nAChR (Homo sapiens, UniProt P36544).
T1 construct: expressed in transfected cells; host or cells: GH4C1 (rat pituitary) cell line, stably transfected
T1 sequence (P36544 23-502): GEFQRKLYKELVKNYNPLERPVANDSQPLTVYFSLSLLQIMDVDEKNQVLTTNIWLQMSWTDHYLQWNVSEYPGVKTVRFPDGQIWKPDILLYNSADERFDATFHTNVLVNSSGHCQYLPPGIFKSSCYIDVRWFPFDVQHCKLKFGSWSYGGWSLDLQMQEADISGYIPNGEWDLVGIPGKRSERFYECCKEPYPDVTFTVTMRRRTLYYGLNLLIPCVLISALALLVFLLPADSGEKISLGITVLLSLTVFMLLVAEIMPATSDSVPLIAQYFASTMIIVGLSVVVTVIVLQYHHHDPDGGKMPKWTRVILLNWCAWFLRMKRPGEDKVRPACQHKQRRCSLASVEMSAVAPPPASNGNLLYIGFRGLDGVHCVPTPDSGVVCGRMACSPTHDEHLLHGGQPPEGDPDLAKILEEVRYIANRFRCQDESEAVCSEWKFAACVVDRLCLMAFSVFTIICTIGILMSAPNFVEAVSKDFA
The test can be described thus: cell-based calcium flux assay (FLIPR) for PAM activity, nicotine-evoked response. To be noted: GH4C1 cell line stably transfected with human α7 nAChR; potentiation of nicotine calcium flux. How it is done: The PAM activity of the compounds of the invention at the α7 nAChR may be determined using the following cell-based calcium flux assay which uses a Fluorimetric Image Plate Reader (FLIPR) (see Schroeder et al.; J. Biomolecular Screening, 1(2), p 75-80, 1996). GH4C1 cell line stably transfected with human α7 nAChR was suspended in a 384 well plate and incubated at 30° C. for 48 h in a 5% carbon dioxide atmosphere. The growth media was removed and the cells washed three times with a solution of Hanks' balanced salt solution (HBSS), 20 mM HEPES and 2.5 mM probenecid leaving 20 μl washing solution in each well. A loading solution (20 μl) containing HBSS, probenecid, 1-4 μM Fluo4 AM (a calcium indicator dye) and pluronic acid was added and the plate incubated for 45 min at 37° C. under an atmosphere free from carbon dioxide. The cells were washed three times leaving 30 μl in each well. The plate containing the cells and calcium indicator dye were then transferred to the FLIPR. The assay was initiated by collecting baseline datapoints at 10 second intervals followed by addition of the test compound in buffer solution (0.33% DMSO) and diluted to a final concentration of 10 μM and serial dilution of the wells, 1:2 or 1:3, gave a low concentration of <1 nM. Following a further 5-10 mins 10 μl of 50 μM nicotine was added and data collected for 2-3 mins. Nicotine produced a rapid, transient and reproducible calcium flux which could be potentiated with the positive allosteric modulator test compounds.
Turning to `CC(F)(F)c1cc(NCc2cnc3[nH]c(C(F)(F)F)cc3c2)ncn1.Cl` [8 HCl, 6-(1,1-Difluoroethyl)-N-{[2-(trifluoromethyl)-1H-pyrrolo[2,3-b]pyridin-5-yl]methyl}-4-pyrimidinamine hydrochloride], the pEC50 was 6 and the “pEC50 Mean” value was “*** (pEC50 mean of at least 6.0)”.

On to `Cl.FC(F)(F)c1cc2cc(CNc3cc(C4CC4)ncn3)cnc2[nH]1` [14 HCl], for which the “pEC50 Mean” value is “* (pEC50 mean of at least 5.0)”.

Take `CCc1cc(NCc2cnc3[nH]c(C(F)(F)F)cc3c2)ncn1.Cl` [5 HCl, 6-Ethyl-N-{[2-(trifluoromethyl)-1H-pyrrolo[2,3-b]pyridin-5-yl]methyl}-4-pyrimidinamine HCl]: the “pEC50 Mean” value is given as “* (pEC50 mean of at least 5.0)”.

Turning to `Cl.FC(F)c1cc(NCc2cnc3[nH]c(C(F)(F)F)cc3c2)ncn1` [10 HCl, 6-(Difluoromethyl)-N-{[2-(trifluoromethyl)-1H-pyrrolo[2,3-b]pyridin-5-yl]methyl}-4-pyrimidinamine hydrochloride], the “pEC50 Mean” value is on record as “** (pEC50 mean of at least 5.5)”.

Staying with this test, now noted: GH4C1 cell line stably transfected with human α7 nAChR; potentiation of nicotine calcium flux; read-out: pEC50 (converted).
As for `CC(F)(F)c1cc(NCc2cnc3[nH]c(C(F)(F)F)cc3c2)ncn1` [Example 8, 6-(1,1-Difluoroethyl)-N-{[2-(trifluoromethyl)-1H-pyrrolo[2,3-b]pyridin-5-yl]methyl}-4-pyrimidinamine], the EC50 was 1 µM.

For the compound `CC(C)(F)c1cc(NCc2cnc3[nH]c(C(F)(F)F)cc3c2)ncn1` [Example 15, 6-(1-Fluoro-1-methylethyl)-N-{[2-(trifluoromethyl)-1H-pyrrolo[2,3-b]pyridin-5-yl]methyl}-4-pyrimidinamine], the EC50 is 0.398 µM.

Take `[2H]C([2H])(Nc1cc(C(C)(C)F)ncn1)c1cnc2[nH]c(C(F)(F)F)cc2c1` [Example 15-d, 6-(1-Fluoro-1-methylethyl)-N-{[2-(trifluoromethyl)-1H-pyrrolo[2,3-b]pyridin-5-yl]methyl}-4-pyrimidinamine-d2]: the EC50 was 0.631 µM.

As for `[2H]C([2H])(Nc1cc(C(C)(F)F)ncn1)c1cnc2[nH]c(C(F)(F)F)cc2c1` [Example 8-d], the EC50 was 1.26 µM.

Still in this test, the particulars now being: GH4C1 cell line stably transfected with human α7 nAChR; potentiation of nicotine calcium flux; read-out: pEC50 Mean (converted).
For `CCc1ncnc(NCc2cnc3[nH]c(C(F)(F)F)cc3c2)c1F` [16 HCl, 6-Ethyl-5-fluoro-N-{[2-(trifluoromethyl}-1H-pyrrolo[2,3-b]pyridin-5-yl]methyl}-4-pyrimidinamine hydrochloride], the EC50 was ≤ 1 µM.

As for `CC(F)c1cc(NCc2cnc3[nH]c(C(F)(F)F)cc3c2)ncn1` (stereo not drawn) [9 HCl], the EC50 is ≤ 3.16 µM.

As to `CCc1cc(NCc2cnc3[nH]c(C(F)(F)F)cc3c2)ncn1` [Example 5, 6-Ethyl-N-{[2-(trifluoromethyl)-1H-pyrrolo[2,3-b]pyridin-5-yl]methyl}-4-pyrimidinamine], the EC50 was ≤ 10 µM.

As to `CC(F)c1cc(NCc2cnc3[nH]c(C(F)(F)F)cc3c2)ncn1` (stereo not drawn) [Example 9, 6-(1-Fluoroethyl)-N-{[2-(trifluoromethyl)-1H-pyrrolo[2,3-b]pyridin-5-yl]methyl}-4-pyrimidinamine], the EC50 was ≤ 10 µM.

`FC(F)(F)c1cc(NCc2ccc3[nH]c(C(F)(F)F)cc3c2)ncn1` [Example 12, 6-(Trifluoromethyl)-N-{[2-(trifluoromethyl)-1H-indol-5-yl]methyl}-4-pyrimidinamine]: the EC50 is ≤ 3.16 µM.

For `FC(F)(F)c1cc2cc(CNc3cc(Cl)ncn3)cnc2[nH]1` [Example 17, 6-Chloro-N-{[2-(trifluoromethyl)-1H-pyrrolo[2,3-b]pyridin-5-yl]methyl}-4-pyrimidinamine], the EC50 is ≤ 3.16 µM.

For the compound `CC(F)(F)c1cc(NCc2cnc3[nH]c(C(F)(F)F)cc3c2)ncn1` [Example 8, 6-(1,1-Difluoroethyl)-N-{[2-(trifluoromethyl)-1H-pyrrolo[2,3-b]pyridin-5-yl]methyl}-4-pyrimidinamine], the EC50 is ≤ 1 µM.

As for `CC(C)(F)c1cc(NCc2cnc3[nH]c(C(F)(F)F)cc3c2)ncn1` [Example 15, 6-(1-Fluoro-1-methylethyl)-N-{[2-(trifluoromethyl)-1H-pyrrolo[2,3-b]pyridin-5-yl]methyl}-4-pyrimidinamine], the EC50 is ≤ 1 µM.

Turning to `FC(F)(F)c1cc(NCc2cnc3[nH]c(C(F)(F)F)cc3c2)ncn1` [Example 1, 6-(Trifluoromethyl)-N-{[2-(trifluoromethyl)-1H-pyrrolo[2,3-b]pyridin-5-yl]methyl}-4-pyrimidinamine], the EC50 was ≤ 1 µM.

As for `N#CCc1cc(NCc2cnc3[nH]c(C(F)(F)F)cc3c2)ncn1` [Example 6, [6-({[2-(Trifluoromethyl)-1H-pyrrolo[2,3-b]pyridin-5-yl]methyl}amino)-4-pyrimidinyl]acetonitrile], the EC50 was ≤ 10 µM.

Consider `FCc1cc(NCc2cnc3[nH]c(C(F)(F)F)cc3c2)ncn1` [11 HCl, 6-(Fluoromethyl)-N-{[2-(trifluoromethyl)-1H-pyrrolo[2,3-b]pyridin-5-yl]methyl}-4-pyrimidinamine hydrochloride], for which the EC50 was ≤ 10 µM.

For `Cl.[2H]C([2H])(Nc1cc(C2CC2)ncn1)c1cnc2[nH]c(C(F)(F)F)cc2c1` [14-d HCl], the EC50 is ≤ 3.16 µM.

In the case of `CCc1ncnc(NCc2cnc3[nH]c(C(F)(F)F)cc3c2)c1C` [Example 19, 6-Ethyl-5-methyl-N-{[2-(trifluoromethyl)-1H-pyrrolo[2,3-b]pyridin-5-yl]methyl}-4-pyrimidinamine], the EC50 was ≤ 10 µM.

For the compound `Cc1c(NCc2cnc3[nH]c(C(F)(F)F)cc3c2)ncnc1C(C)(F)F` [21 HCl], the EC50 was ≤ 1 µM.

Consider `Cc1c(NCc2cnc3[nH]c(C(F)(F)F)cc3c2)ncnc1C(F)(F)F` [22 HCl, 5-Methyl-6-(trifluoromethyl)-N-{[2-(trifluoromethyl)-1H-pyrrolo[2,3-b]pyridin-5-yl]methyl}-4-pyrimidinamine hydrochloride], for which the EC50 was ≤ 1 µM.

Take `Cc1c(NCc2cnc3[nH]c(C(F)(F)F)cc3c2)ncnc1C(C)F` (stereo not drawn) [20 HCl]: the EC50 is ≤ 1 µM.

As to `CC(C)(C)c1cc(NCc2cnc3[nH]c(C(F)(F)F)cc3c2)ncn1` [Example 4, 6-(1,1-Dimethylethyl)-N-{[2-(trifluoromethyl)-1H-pyrrolo[2,3-b]pyridin-5-yl]methyl}-4-pyrimidinamine], the EC50 was ≤ 3.16 µM.

`FC(F)(F)c1cc2cc(CNc3cc(Cl)ncn3)ccc2[nH]1` [Example 13, 6-Chloro-N-{[2-(trifluoromethyl)-1H-indol-5-yl]methyl}-4-pyrimidinamine]: the EC50 is ≤ 10 µM.

Consider `[2H]C([2H])(Nc1cc(C(C)(C)F)ncn1)c1cnc2[nH]c(C(F)(F)F)cc2c1` [Example 15-d, 6-(1-Fluoro-1-methylethyl)-N-{[2-(trifluoromethyl)-1H-pyrrolo[2,3-b]pyridin-5-yl]methyl}-4-pyrimidinamine-d2], for which the EC50 was ≤ 1 µM.

Regarding `N#Cc1cc(NCc2cnc3[nH]c(C(F)(F)F)cc3c2)ncn1` [Example 3, 6-({[2-(Trifluoromethyl)-1H-pyrrolo[2,3-b]pyridin-5-yl]methyl}amino)-4-pyrimidinecarbonitrile], the EC50 is ≤ 3.16 µM.

Regarding `[2H]C([2H])(Nc1cc(C(C)(F)F)ncn1)c1cnc2[nH]c(C(F)(F)F)cc2c1` [Example 8-d], the EC50 is ≤ 3.16 µM.

In the case of `CC(C)c1cc(NCc2cnc3[nH]c(C(F)(F)F)cc3c2)ncn1` [Example 2, 6-(1-Methylethyl)-N-{[2-(trifluoromethyl)-1H-pyrrolo[2,3-b]pyridin-5-yl]methyl}-4-pyrimidinamine], the EC50 is ≤ 10 µM.

On to `FC(F)(F)c1cc2cc(CNc3cc(C4CC4)ncn3)cnc2[nH]1` [Example 14, 6-Cyclopropyl-N-{[2-(trifluoromethyl)-1H-pyrrolo[2,3-b]pyridin-5-yl]methyl}-4-pyrimidinamine], for which the EC50 was ≤ 10 µM.

Take `Cc1c(NCc2cnc3[nH]c(C(F)(F)F)cc3c2)ncnc1C(F)F` [Example 23, 6-(difluoromethyl)-5-methyl-N-{[2-(trifluoromethyl)-1H-pyrrolo[2,3-b]pyridin-5-yl]methyl}-4-pyrimidinamine]: the EC50 was ≤ 3.16 µM.

For the compound `Cc1c(CF)ncnc1NCc1cnc2[nH]c(C(F)(F)F)cc2c1` [24 HCl], the EC50 is ≤ 10 µM.

As for `FCc1cc(NCc2cnc3[nH]c(C(F)(F)F)cc3c2)ncn1` [Example 11, 6-(Fluoromethyl)-N-{[2-(trifluoromethyl)-1H-pyrrolo[2,3-b]pyridin-5-yl]methyl}-4-pyrimidinamine], the EC50 was ≤ 3.16 µM.

On to `CCc1cc(NCc2ccc3[nH]c(C(F)(F)F)cc3c2)ncn1` [Example 18, 6-Ethyl-N-{[2-(trifluoromethyl)-1H-indol-5-yl]methyl}-4-pyrimidinamine], for which the EC50 was ≤ 10 µM.

With `FC(F)c1cc(NCc2cnc3[nH]c(C(F)(F)F)cc3c2)ncn1` [Example 10, 6-(Difluoromethyl)-N-{[2-(trifluoromethyl)-1H-pyrrolo[2,3-b]pyridin-5-yl]methyl}-4-pyrimidinamine], the EC50 is ≤ 3.16 µM.

As for `Cc1c(NCc2cnc3[nH]c(C(F)(F)F)cc3c2)ncnc1C1CC1` [25 HCl, 6-Cyclopropyl-5-methyl-N-{[2-(trifluoromethyl)-1H-pyrrolo[2,3-b)pyridin-5-yl]methyl}-4-pyrimidinamine hydrochloride], the EC50 is ≤ 3.16 µM.

With `CC(=O)c1cc(NCc2cnc3[nH]c(C(F)(F)F)cc3c2)ncn1` [Example 7, 1-[6-({[2-(Trifluoromethyl)-1H-pyrrolo[2,3-b]pyridin-5-yl]methyl}amino)-4-pyrimidinyl]ethanone], the EC50 was ≤ 10 µM.
